This passage reports EC50 results from patent publication US20160045505A1, “COMPOUNDS AND COMPOSITIONS FOR THE TREATMENT OF PARASITIC DISEASES” (NOVARTIS AG, priority 2013, published 2016).

Each structure is given as a SMILES string. Read-outs that look alike come from different tables or passages of the source.

In assay [1] the test system is L. donovani HU3 strain in mouse peritoneal macrophages. Briefly: Assay for proliferation of Leishmania parasites in infected mouse peritoneal macrophages (SybrGreen staining, high-content imaging, 5 days). It counts as cell-based, Leishmania donovani. The following applies: Leishmania donovani, Peritoneal macrophage, L. donovani in mouse peritoneal macrophages, read-out: L. donovani Macrophage EC50.

The test system of assay [2] is Trypanosoma cruzi amastigotes (Tulahuen strain expressing Lac-Z) cultured in 3T3 fibroblast cells. Description: microbe, parasite or virus in culture. It counts as cell-based. The following applies: Trypanosoma cruzi, TULAHUEN, Fibroblast, T. cruzi amastigotes in 3T3 fibroblast cells, read-out: T cruzi EC50.
Assay [3] has as its system Leishmania donovani axenic amastigote parasites. Briefly: Leishmania donovani axenic amastigote proliferation assay (Cell TiterGlo luminescence, 2 day incubation). It counts as cell-based. The following applies: Leishmania donovani, read-out: L. donovani amastigotes EC50. In general terms: Cellular ATP, detected with luciferase, serves as a proxy for viable cell number.
Setting [4] is: axenic amastigotes, inhibition of proliferation.

In the case of `Cc1nc(C)c(C(=O)Nc2ccc(F)c(-c3cn4cc(NC(=O)C5CCCCO5)cnc4n3)c2)o1` (stereo not drawn) [Compound 151], the EC50 (commonly the concentration at which the effect is half-maximal) in assay [1] (inhibition of proliferation) was determined as 429 nM; in assay [2] (inhibition of proliferation) it was 590 nM; in assay [3] (setting [4]) it was 136 nM.

Turning to `CC(C)OC(=O)Nc1cnc2nc(-c3cc(NC(=O)N4CCN(C)CC4)ccc3Cl)cn2c1` [Compound 218], the EC50 is 31700 nM in assay [1] (inhibition of proliferation), > 20000 nM in assay [2] (inhibition of proliferation) and > 25000 nM in assay [3] (setting [4]).

Consider `Cc1nc(C)c(C(=O)N(C)c2ccc(F)c(-c3cn4cc(NC(C)C)cnc4n3)c2)o1` [Compound 557], for which the EC50 was > 50000 nM in assay [1], > 20000 nM in assay [2] and > 25000 nM in assay [3] (L. donovani axenic amastigotes).

For the compound `CCn1nccc1-c1cnc2nc(-c3cc(NC(=O)c4oc(C)nc4C)ccc3F)cn2c1` [Compound 387], the concentration giving a half-maximal response (EC50) was 286 nM in assay [1], 149 nM in assay [2] and 86 nM in assay [3] (L. donovani axenic amastigotes).

As to `CC(C)OC(=O)Nc1cnc2nc(-c3cc(NC(=O)N4CCC(NC(=O)OC(C)(C)C)C4)ccc3Cl)cn2c1` (stereo not drawn) [Compound 268], the EC50 was 14500 nM in assay [1] (inhibition of proliferation), 10600 nM in assay [2] (inhibition of proliferation) and > 25000 nM in assay [3] (setting [4]).

On to `CC(C)OC(=O)Nc1cnc2nc(-c3cc(NC(=O)N4CCCC4)ccc3Cl)cn2c1` [Compound 2, propan-2-yl N-(2-{2-chloro-5-[(pyrrolidin-1-yl)carbonylamino]phenyl}imidazo[1,2-a]pyrimidin-6-yl)carbamate], for which the results for the EC50 in assay [1] (inhibition of proliferation), in assay [2] (inhibition of proliferation) and in assay [3] (setting [4]) were 268 nM, 243 nM and 96 nM, respectively.

For the compound `Cc1nc(C)c(C(=O)Nc2ccc(F)c(-c3cn4cc(C5=CCOCC5)cnc4n3)c2)o1` [Compound 334], the EC50 came to 85 nM in assay [1] (inhibition of proliferation), 64 nM in assay [2] (inhibition of proliferation) and 52 nM in assay [3] (setting [4]).

Consider `COCCOC(=O)Nc1ccc(F)c(-c2cn3cc(NC(=O)OC(C)C)cnc3n2)c1` [Compound 303], for which the EC50 in assay [1] (inhibition of proliferation) is > 50000 nM; in assay [2] (inhibition of proliferation) it was 17700 nM; in assay [3] (setting [4]), > 20300 nM.

On to `CC(C)(C)OC(=O)N1CC=C(c2cnc3nc(-c4cc(NC(=O)N5CCCC5)ccc4Cl)cn3c2)CC1` [Compound 343, tert-butyl 4-(2-(2-chloro-5-(pyrrolidine-1-carboxamido)phenyl)imidazo[1,2-a]pyrimidin-6-yl)-5,6-dihydropyridine-1(2H)-carboxylate], for which the EC50 in assay [1] (inhibition of proliferation) worked out at 308 nM; in assay [2] (inhibition of proliferation), 74 nM; in assay [3] (setting [4]) it was 106 nM.

In the case of `O=C(Nc1ccc(F)c(-c2cn3cc(OCC4CC4)cnc3n2)c1)N1CCCC1` [Compound 562, N-(3-(6-(cyclopropylmethoxy)imidazo[1,2-a]pyrimidin-2-yl)-4-fluorophenyl)pyrrolidine-1-carboxamide], the EC50 in assay [1] turned out to be 245 nM; in assay [2] it was 46 nM; in assay [3] (L. donovani axenic amastigotes), 160 nM.

With `CC(C)OC(=O)Nc1cnc2nc(-c3cc(NC(=O)N4CCCC4C)ccc3Cl)cn2c1` (stereo not drawn) [Compound 272], the figures for the EC50 in assay [1] (inhibition of proliferation), in assay [2] (inhibition of proliferation) and in assay [3] (setting [4]) were 3370 nM, 1290 nM and 1690 nM, respectively.

Turning to `Cc1nc(C)c(C(=O)Nc2ccc(F)c(-c3cn4cc(-c5ccccn5)cnc4n3)c2)o1` [Compound 394], the EC50 in assay [1] was 107 nM; in assay [2], > 20000 nM; in assay [3] (L. donovani axenic amastigotes) it was 80 nM.

`COc1cccnc1-c1cnc2nc(-c3cc(NC(=O)c4oc(C)nc4C)ccc3F)cn2c1` [Compound 459]: the EC50 in assay [1] was determined as 347 nM; in assay [2], 119 nM; in assay [3] (L. donovani axenic amastigotes), 129 nM.

Consider `CC(C)OC(=O)Nc1ccc(F)c(-c2cn3cc(NC(=O)OC(C)C)cnc3n2)c1` [Compound 302], for which the EC50 in assay [1] (inhibition of proliferation) came out at 587 nM; in assay [2] (inhibition of proliferation) it was 134 nM; in assay [3] (setting [4]) it was 305 nM.

With `O=C(Nc1ccc(F)c(-c2cn3cc(-c4ccccc4)cnc3n2)c1)c1ccc(F)o1` [Compound 576, 5-fluoro-N-(4-fluoro-3-(6-phenylimidazo[1,2-a]pyrimidin-2-yl)phenyl)furan-2-carboxamide], the concentration giving a half-maximal response (EC50) is 807 nM in assay [1], 50 nM in assay [2] and 526 nM in assay [3] (L. donovani axenic amastigotes).

On to `CC(C)OC(=O)Nc1cnc2nc(-c3cc(NC(=O)C(C)OCC(F)(F)F)ccc3Cl)cn2c1` (stereo not drawn) [Compound 58], for which the results for the half-maximal effective concentration (EC50) in assay [1] (inhibition of proliferation), in assay [2] (inhibition of proliferation) and in assay [3] (setting [4]) were 10500 nM, 4530 nM and 14200 nM, respectively.

As for `Cc1nc(C)c(C(=O)Nc2ccc(F)c(-c3cn4cc(NC5=NCCN5C)cnc4n3)c2)o1` [Compound 506], the EC50 in assay [1] was > 26000 nM; in assay [2], > 18200 nM; in assay [3] (L. donovani axenic amastigotes) it was > 25000 nM.

As for `CC(C)OC(=O)Nc1cnc2nc(-c3cc(NC(=O)N4CCC[C@H]4C(N)=O)ccc3Cl)cn2c1` [Compound 262], the results for the EC50 in assay [1] (inhibition of proliferation), in assay [2] (inhibition of proliferation) and in assay [3] (setting [4]) were > 50000 nM, > 20000 nM and > 25000 nM, respectively.

Take `CC(C)OC(=O)Nc1cnc2nc(-c3cc(NC(=O)N4CCC(=O)C4)ccc3Cl)cn2c1` [Compound 281]: the EC50 in assay [1] (inhibition of proliferation) was > 37100 nM; in assay [2] (inhibition of proliferation), > 20000 nM; in assay [3] (setting [4]), 8700 nM.

On to `Cc1nc(C)c(C(=O)Nc2ccc(F)c(-c3cn4cc(C5=CCN(C)CC5)cnc4n3)c2)o1` [Compound 361], for which the EC50 came to 993 nM in assay [1] (inhibition of proliferation), 1040 nM in assay [2] (inhibition of proliferation) and 7930 nM in assay [3] (setting [4]).

Consider `CC(C)OC(=O)Nc1cnc2nc(-c3cc(NC(=O)c4cnc(C5CC5)o4)ccc3F)cn2c1` [Compound 108], for which the figures for the EC50 in assay [1] (inhibition of proliferation), in assay [2] (inhibition of proliferation) and in assay [3] (setting [4]) were 2410 nM, 1190 nM and 771 nM, respectively.

`CNC(=O)Nc1ccc(F)c(-c2cn3cc(NC(=O)OC(C)C)cnc3n2)c1` [Compound 220]: the results for the EC50 in assay [1] (inhibition of proliferation), in assay [2] (inhibition of proliferation) and in assay [3] (setting [4]) were 4970 nM, 1370 nM and 606 nM, respectively.

Regarding `CC1(c2nc(Nc3ccc(F)c(-c4cn5cc(C6CC6)cnc5n4)c3)no2)COC1` [Compound 595, N-(3-(6-cyclopropylimidazo[1,2-a]pyrimidin-2-yl)-4-fluorophenyl)-5-(3-methyloxetan-3-yl)-1,2,4-oxadiazol-3-amine], the figures for the EC50 in assay [1], in assay [2] and in assay [3] (L. donovani axenic amastigotes) were > 50000 nM, 9170 nM and > 25000 nM, respectively.

Take `O=C(Nc1ccc(F)c(-c2cn3cc(-c4ccccc4)cnc3n2)c1)N1CCCC1` [Compound 358]: the EC50 in assay [1] (inhibition of proliferation) is 148 nM; in assay [2] (inhibition of proliferation) it was 12 nM; in assay [3] (setting [4]) it was 30 nM.

Consider `CC(C)OC(=O)Nc1cnc2nc(-c3cc(NC(=O)C4CCCO4)ccc3Cl)cn2c1` (stereo not drawn) [Compound 55], for which the EC50 turned out to be 27100 nM in assay [1] (inhibition of proliferation), 4140 nM in assay [2] (inhibition of proliferation) and 7230 nM in assay [3] (setting [4]).

In the case of `CC(C)OC(=O)Nc1cnc2nc(-c3cc(NC(=O)c4ncc[nH]4)ccc3F)cn2c1` [Compound 92], the EC50 is > 28900 nM in assay [1] (inhibition of proliferation), > 20000 nM in assay [2] (inhibition of proliferation) and > 25000 nM in assay [3] (setting [4]).

As to `Cc1nc(C)c(C(=O)Nc2ccc(F)c(-c3cn4cc(-c5cccc(N6CCNCC6)n5)cnc4n3)c2)o1` [Compound 572], the EC50 stood at 2360 nM in assay [1], 394 nM in assay [2] and 1940 nM in assay [3] (L. donovani axenic amastigotes).

Regarding `CC(C)OC(=O)Nc1cnc2nc(-c3cc(Nc4cccnc4)ccc3F)cn2c1` [Compound 486], the values for the EC50 in assay [1], in assay [2] and in assay [3] (L. donovani axenic amastigotes) were > 50000 nM, 1450 nM and 16100 nM, respectively.

As to `Cc1nc(C)c(C(=O)Nc2ccc(F)c(-c3cn4cc(-c5nc(C)c(C)s5)cnc4n3)c2)o1` [Compound 457, N-(3-(6-(4,5-dimethylthiazol-2-yl)imidazo[1,2-a]pyrimidin-2-yl)-4-fluorophenyl)-2,4-dimethyloxazole-5-carboxamide], the EC50 stood at 13200 nM in assay [1], 320 nM in assay [2] and 162 nM in assay [3] (L. donovani axenic amastigotes).

Take `CC(C)OC(=O)Nc1cnc2nc(-c3cc(NC(=O)N4CCC(N5CCOCC5)C4)ccc3Cl)cn2c1` (stereo not drawn) [Compound 273]: the values for the concentration giving a half-maximal response (EC50) in assay [1] (inhibition of proliferation), in assay [2] (inhibition of proliferation) and in assay [3] (setting [4]) were > 50000 nM, > 20000 nM and > 25000 nM, respectively.

Regarding `COCCNc1cnc2nc(-c3cc(NC(=O)N4CCCC4)ccc3Cl)cn2c1` [Compound 496], the EC50 is 8850 nM in assay [1], 2120 nM in assay [2] and 2060 nM in assay [3] (L. donovani axenic amastigotes).

Consider `Cc1nc(C)c(C(=O)Nc2ccc(Cl)c(-c3cn4cc(N5CCOC5=O)cnc4n3)c2)o1` [Compound 520, N-(4-chloro-3-(6-(2-oxooxazolidin-3-yl)imidazo[1,2-a]pyrimidin-2-yl)phenyl)-2,4-dimethyloxazole-5-carboxamide], for which the results for the EC50 in assay [1], in assay [2] and in assay [3] (L. donovani axenic amastigotes) were > 50000 nM, > 20000 nM and > 25000 nM, respectively.

`O=C(Nc1ccc(F)c(-c2cn3cc(-c4ccccc4)cnc3n2)c1)N1CCC1` [Compound 321]: the EC50 in assay [1] (inhibition of proliferation) was determined as 15 nM; in assay [2] (inhibition of proliferation), 5 nM; in assay [3] (setting [4]), 8 nM.

In the case of `Cc1nc(C)c(C(=O)Nc2ccc(F)c(-c3cn4cc(C5=CCN(C(=O)OC(C)(C)C)CC5)cnc4n3)c2)o1` [Compound 347], the EC50 in assay [1] (inhibition of proliferation) came out at 151 nM; in assay [2] (inhibition of proliferation) it was 99 nM; in assay [3] (setting [4]), 154 nM.

On to `Cc1nc(C)c(C(=O)Nc2ccc(F)c(-c3cn4cc(C5CCOCC5)cnc4n3)c2)o1` [Compound 421], for which the values for the EC50 in assay [1], in assay [2] and in assay [3] (L. donovani axenic amastigotes) were 337 nM, 170 nM and 127 nM, respectively.

`CC(C)OC(=O)Nc1cnc2nc(-c3cc(NC(=O)N4CCCC4)ccc3F)cn2c1` [Compound 17]: the values for the EC50 in assay [1] (inhibition of proliferation) and in assay [3] (setting [4]) were 350 nM and 410 nM, respectively.

Turning to `COC(=O)CN1CCC(c2cnc3nc(-c4cc(NC(=O)c5oc(C)nc5C)ccc4F)cn3c2)CC1` [Compound 539, methyl 2-(4-(2-(5-(2,4-dimethyloxazole-5-carboxamido)-2-fluorophenyl)imidazo[1,2-a]pyrimidin-6-yl)piperidin-1-yl)acetate], the figures for the half-maximal effective concentration (EC50) in assay [2] and in assay [3] (L. donovani axenic amastigotes) were 381 nM and 975 nM, respectively.

On to `CC(C)OC(=O)Nc1cnc2nc(-c3cc(NC(=O)N4CC(S(C)(=O)=O)C4)ccc3F)cn2c1` [Compound 292], for which the EC50 is > 43500 nM in assay [1] (inhibition of proliferation) and > 25000 nM in assay [3] (setting [4]).
